Publication PMC7802075 (ACS Infectious Diseases, 2020)
Read-outs that look alike come from different tables or passages of the source.

How the values were obtained:
[1] = tested on: L. major (FV1) promastigotes; assay: Antipromastigote resazurin assay, L. major (FV1) wild type; assay type: cell-based, Leishmania major; conditions: for EC50: secondary dose response, L. major (FV1), read-out: EC50 against L. major promastigotes
[2] = biological target: T1, LmjIPCS (inositol phosphorylceramide synthase from L. major) (Leishmania major, UniProt E9AFX2); assay: biochemical; assay type: biochemical; conditions: for LmjIPCS inhibition: secondary dose response; for inhibition at 20000 µM: read-out: 20mM inhibition LmjIPCS
T1 sequence (E9AFX2 1-338): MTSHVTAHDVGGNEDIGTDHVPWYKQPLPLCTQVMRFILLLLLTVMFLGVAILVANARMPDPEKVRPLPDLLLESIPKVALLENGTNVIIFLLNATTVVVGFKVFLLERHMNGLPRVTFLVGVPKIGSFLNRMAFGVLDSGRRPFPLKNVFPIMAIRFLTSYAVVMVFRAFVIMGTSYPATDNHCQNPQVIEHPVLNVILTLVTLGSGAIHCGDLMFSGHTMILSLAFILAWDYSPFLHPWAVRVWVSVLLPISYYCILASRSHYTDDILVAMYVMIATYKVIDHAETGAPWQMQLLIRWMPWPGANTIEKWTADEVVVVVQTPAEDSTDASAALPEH

[3] = NINDS set screen against L. major promastigotes, single concentration printed as 10mM
[4] = NINDS set screen, single concentration printed as 20mM
[5] = L. major promastigotes, dose response

Structure (SMILES) | 10mM inhibition L. major [1] | 10mM inhibition L. major [1, 3] | 20mM inhibition LmjIPCS [2] | other results
CCN(CC)CCOc1ccc(C(=C(Cl)c2ccccc2)c2ccccc2)cc1 [clomiphene 4, clomiphene, reference compound] | 65% |  |  | ED50 vs L. major [1]: 6570 µM
C[C@]12CC[C@@H]3c4ccc(O)cc4CC[C@H]3[C@@H]1CC[C@@H]2OC(=O)CCC1CCCC1 [ESTRADIOL CYPIONATE] |  | <5% | 83% | 
CN[C@H]1CC[C@@H](c2ccc(Cl)c(Cl)c2)c2ccccc21 [sertraline 13, sertraline, reference compound] |  |  |  | ED50 vs L. major [1]: 14580 µM
CN1CCc2c(c3ccccc3n2Cc2ccccc2)C1 [MEBHYDROLIN] |  | <5% |  | 20mM inhibition LmjIPCS [2, 4]: 72%
CCOC(=O)C1=C(COCCN)NC(C)=C(C(=O)OC)C1c1ccccc1Cl (centres unmarked) [amlodipine 2, amlodipine, reference compound] |  | 62% | 80% | ED50 vs L. major [1, 5]: 1910 µM; EC50 ([1]; Leishmania major): > 1 µM; IC50 [2]: 3 µM; LmjIPCS inhibition [2]: confirmed
CCCCOc1ccc(OCCCN2CCOCC2)cc1 [PRAMOXINE] |  | <5% | 71% | 
Clc1ccc(COC(Cn2ccnc2)c2ccc(Cl)cc2Cl)c(Cl)c1 (centres unmarked) [MICONAZOLE] | <5% |  |  | 
CNCCCC12CCC(c3ccccc31)c1ccccc12 [MAPROTILINE] | <5% |  |  | 
CCN1C[C@]2(COC)[C@H](O)C[C@H](OC)[C@@]34[C@@H]5C[C@@]6(O)[C@H](OC(=O)c7ccccc7)[C@@H]5[C@@](OC(C)=O)([C@@H]([C@H](OC)[C@H]23)[C@@H]14)[C@@H](O)[C@@H]6OC [ACONITINE] |  | <5% | 97% | 
COC1=C[C@@H](C)[C@@H]2C[C@H]3OC(=O)C[C@H]4C(C)=C(OC)C(=O)[C@H]([C@@]2(C)C1=O)[C@@]34C [QUASSIN] |  |  |  | inhibition of growth at 10000 µM ([1]; Leishmania major, NINDS set screen against L. major promastigotes, single concentration printed as 10mM): < 5%; 20mM inhibition LmjIPCS [2, 4]: 70%
CN(C)CCC=C1c2ccccc2COc2ccccc21 [doxepin 5, doxepin, reference compound] | 44% |  |  | ED50 vs L. major [1]: 30000 µM
CN(C)CCCN1c2ccccc2Sc2ccc(Cl)cc21 [chlorpromazine 3, chlorpromazine, reference compound] |  | 76% | 88% | ED50 vs L. major [1, 5]: 9800 µM; EC50 ([1]; Leishmania major): > 1 µM; IC50 [2]: 4.7 µM; LmjIPCS inhibition [2]: confirmed
CC(C)CC(N(C)C)C1(c2ccc(Cl)cc2)CCC1 (centres unmarked) [SIBUTRAMINE] |  | <5% | 74% | 
CCCCCCCCCCCCCCCC[N+](C)(C)C [CETRIMONIUM] |  | <5% | 75% | 
CC(C)=CCc1c2c(c3occ(-c4ccc(O)c(O)c4)c(=O)c3c1O)C=CC(C)(C)O2 [POMIFERIN] |  | <5% |  | 20mM inhibition LmjIPCS [2, 4]: 73%
CN(C)CCCN1c2ccccc2CCc2ccccc21 [IMIPRAMINE] |  | <5% |  | 
Fc1ccc(C(c2ccc(F)cc2)N2CCN(C/C=C/c3ccccc3)CC2)cc1 [flunarizine 7, flunarizine, reference compound] | 56% |  |  | ED50 vs L. major [1]: 1730 µM
CN1[C@@H]2CC[C@H]1C[C@@H](OC(c1ccccc1)c1ccccc1)C2 [BENZTROPINE] | <5% |  |  | 
COc1ccc(C(CN(C)C)C2(O)CCCCC2)cc1 (centres unmarked) [VENLAFAXINE] |  |  |  | inhibition at 20000 µM [2]: 26%
O=S(=O)(O)CCS [MESNA] |  |  |  | inhibition at 20000 µM [2]: -0.783%
